test system: ApoA-I mRNA; assay: Quantification of ApoA-I mRNA in HepG2 cells (real-time PCR); type: cell-based; parameters: key: Active: An active compound was defined as one that caused a ≧20% increase in ApoA-I mRNA at a concentration less than or equal to 100 μM; details: fold induction relative to DMSO control, concentration less than or equal to 100 μM
Method: In this example, ApoA-I mRNA in tissue culture cells was quantitated to measure the transcriptional up-regulation of ApoA-I when treated with a compound of the invention.
HepG2 cells (approximately 2×10^5 per well) were placed in a 24-well plate in approximately 400 μL MEM, supplemented with 0.5% (v/v) FBS, 24 h before addition of the compound of interest. At time of harvesting, the spent media was removed from the HepG2 cells and immediately placed on ice (for immediate use) or at −80° C. (for future use) in ApoA-I and albumin ELISAs. The cells remaining in the plate wells were rinsed in 200 μL PBS. PBS was carefully removed to avoid removing any loosely attached cells.
Once the PBS was removed, 85 μL cell lysis solution was added the cells in each well and incubated for 5-10 minutes at room temperature, to allow for complete cell lysis and detachment. mRNA was then prepared using the “mRNA Catcher PLUS plate” from Invitrogen, according to the protocol supplied. After the last wash, as much wash buffer as possible was aspirated without allowing the wells to dry. Elution Buffer (E3, 80 μL) was then added to each well. mRNA was then eluted by incubating the mRNA Catcher PLUS plate with Elution Buffer for 5 minutes at 68° C. and then immediately placing the plate on ice.
The eluted mRNA isolated was then used in a one-step real-time […] reaction, using components of the Ultra Sense Kit together with Applied Biosystems primer-probe mixes. Real-time PCR data was analyzed, using the Ct values, to determine the fold induction of each unknown sample, relative to the control (that is, relative to the control for each independent DMSO concentration).
An active compound was defined as one that caused a ≧20% increase in ApoA-I mRNA at a concentration less than or equal to 100 μM.

SMILES | Effect on ApoA-I mRNA levels
CCC(C)c1ccc(-n2c(-c3cc(C)c(OCCO)c(C)c3)nc3ccccc3c2=O)cc1 (centres unmarked) [1 and 2, 3-(4-sec-butylphenyl)-2-(4-(2-hydroxyethoxy)-3,5-dimethylphenyl)quinazolin-4(3H)-one] | Active
CCC(C)c1ccc(-n2c(-c3cc(C)c(OCCO)c(C)c3)nc3cc(F)ccc3c2=O)cc1 (centres unmarked) [Example 4, 3-(4-sec-butylphenyl)-7-fluoro-2-(4-(2-hydroxyethoxy)-3,5-dimethylphenyl)quinazolin-4(3H)-one] | Active
CCC(C)c1ccc(-n2c(-c3cc(C)c(OCCO)c(C)c3)nc3ccc(F)cc3c2=O)cc1 (centres unmarked) [Example 9, 3-(4-sec-butylphenyl)-6-fluoro-2-(4-(2-hydroxyethoxy)-3,5-dimethylphenyl)quinazolin-4(3H)-one] | Active
Cc1cc(-c2nc3ccccc3c(=O)n2-c2ccc(C(F)(F)F)cc2)cc(C)c1OCCO [Example 11, 2-(4-(2-hydroxyethoxy)-3,5-dimethylphenyl)-3-(4-(trifluoromethyl)phenyl)quinazolin-4(3H)-one] | Active
Cc1cc(-c2nc3ccccc3c(=O)n2-c2ccc(N3CCOCC3)cc2)cc(C)c1OCCO [Example 21, 2-(4-(2-hydroxyethoxy)-3,5-dimethylphenyl)-3-(4-morpholinophenyl)quinazolin-4(3H)-one] | Active
Cc1cc(-c2nc3ccccc3c(=O)n2-c2ccc(C(C)(C)C)cc2)cc(C)c1OCCO [Example 22, 3-(4-tert-butylphenyl)-2-(4-(2-hydroxyethoxy)-3,5-dimethylphenyl)quinazolin-4(3H)-one] | Active
CC(=O)Nc1ccc(-n2c(-c3cc(C)c(OCCO)c(C)c3)nc3ccccc3c2=O)cc1 [Example 23, N-(4-(2-(4-(2-hydroxyethoxy)-3,5-dimethylphenyl)-4-oxoquinazolin-3(4H)-yl)phenyl)acetamide] | Active
Cc1cc(-c2nc3ccccc3c(=O)n2-c2ccc(NC(=O)C(C)C)cc2)cc(C)c1OCCO [Example 24, N-(4-(2-(4-(2-hydroxyethoxy)-3,5-dimethylphenyl)-4-oxoquinazolin-3(4H)-yl)phenyl)isobutyramide] | Active
COC(=O)c1ccc(-n2c(-c3cc(C)c(OCCO)c(C)c3)nc3ccccc3c2=O)cc1 [Example 25, methyl 4-(2-(4-(2-hydroxyethoxy)-3,5-dimethylphenyl)-4-oxoquinazolin-3(4H)-yl)benzoate] | Active
Cc1cc(-c2nc3ccccc3c(=O)n2-c2ccc(C3CCCCC3)cc2)cc(C)c1OCCO [Example 26, 3-(4-cyclohexylphenyl)-2-(4-(2-hydroxyethoxy)-3,5-dimethylphenyl)quinazolin-4(3H)-one] | Active
Cc1cc(-c2nc3ccccc3c(=O)n2-c2ccc(NC=O)cc2)cc(C)c1OCCO [Example 27, N-(4-(2-(4-(2-hydroxyethoxy)-3,5-dimethylphenyl)-4-oxoquinazolin-3(4H)-yl)phenyl)formamide] | Active
Cc1cc(-c2nc3ccccc3c(=O)n2-c2ccc(N)cc2)cc(C)c1OCCO [Example 28, 3-(4-aminophenyl)-2-(4-(2-hydroxyethoxy)-3,5-dimethylphenyl)quinazolin-4(3H)-one] | Active
Cc1cc(-c2nc3ccccc3c(=O)n2-c2ccc(NS(C)(=O)=O)cc2)cc(C)c1OCCO [Example 29, N-(4-(2-(4-(2-hydroxyethoxy)-3,5-dimethylphenyl)-4-oxoquinazolin-3(4H)-yl)phenyl)methanesulfonamide] | Active
Cc1cc(-c2nc3ccccc3c(=O)n2-c2ccc(NS(=O)(=O)C(C)C)cc2)cc(C)c1OCCO [Example 31, N-(4-(2-(4-(2-hydroxyethoxy)-3,5-dimethylphenyl)-4-oxoquinazolin-3(4H)-yl)phenyl)propane-2-sulfonamide] | Active
Cc1cc(-c2nc3ccccc3c(=O)n2-c2ccc(N(C)C)cc2)cc(C)c1OCCO [Example 32, 3-(4-(dimethylamino)phenyl)-2-(4-(2-hydroxyethoxy)-3,5-dimethylphenyl)quinazolin-4(3H)-one] | Active
CCC(C)c1ccc(-n2c(-c3ccc(OCCO)c(C)c3)nc3ccccc3c2=O)cc1 (centres unmarked) [Example 33, 3-(4-sec-butylphenyl)-2-(4-(2-hydroxyethoxy)-3-methylphenyl)quinazolin-4(3H)-one] | Active
Cc1cc(-c2nc3ccccc3c(=O)n2-c2ccc(Cl)cc2)ccc1OCCO [Example 34, 3-(4-chlorophenyl)-2-(4-(2-hydroxyethoxy)-3-methylphenyl)quinazolin-4(3H)-one] | Active
CCC(C)c1ccc(-n2c(-c3cccnc3)nc3ccccc3c2=O)cc1 (centres unmarked) [Example 35, 3-(4-sec-butylphenyl)-2-(pyridin-3-yl)quinazolin-4(3H)-one] | Active

SMILES | Effect on ApoA-I mRNA levels
O=c1c2ccccc2nc(-c2cnc3ccccc3c2)n1-c1ccc(Cl)cc1 [Example 36, 3-(4-chlorophenyl)-2-(quinolin-3-yl)quinazolin-4(3H)-one] | Active
CCC(C)c1ccc(-n2c(-c3cncc(F)c3)nc3ccccc3c2=O)cc1 (centres unmarked) [Example 37, 3-(4-sec-butylphenyl)-2-(5-fluoropyridin-3-yl)quinazolin-4(3H)-one] | Active
O=c1c2ccccc2nc(-c2ccc(Cl)nc2)n1-c1ccc(Cl)cc1 [Example 38, 3-(4-chlorophenyl)-2-(6-chloropyridin-3-yl)quinazolin-4(3H)-one] | Active
CCC(C)c1ccc(-n2c(-c3ccc(Cl)nc3)nc3ccccc3c2=O)cc1 (centres unmarked) [Example 39, 3-(4-sec-butylphenyl)-2-(6-chloropyridin-3-yl)quinazolin-4(3H)-one] | Active
CCC(C)c1ccc(-n2c(-c3ccc(OC)nc3)nc3ccccc3c2=O)cc1 (centres unmarked) [Example 40, 3-(4-sec-butylphenyl)-2-(6-methoxypyridin-3-yl)quinazolin-4(3H)-one] | Active
O=c1c2ccccc2nc(-c2ccc(Br)nc2)n1-c1ccc(Cl)cc1 [Example 41, 2-(6-bromopyridin-3-yl)-3-(4-chlorophenyl)quinazolin-4(3H)-one] | Active
CCC(C)c1ccc(-n2c(-c3ccc(Br)nc3)nc3ccccc3c2=O)cc1 (centres unmarked) [Example 42, 2-(6-bromopyridin-3-yl)-3-(4-sec-butylphenyl)quinazolin-4(3H)-one] | Active
CCN(CC)c1ccc(-c2nc3ccccc3c(=O)n2-c2ccc(Cl)cc2)cn1 [Example 43, 3-(4-chlorophenyl)-2-(6-(diethylamino)pyridin-3-yl)quinazolin-4(3H)-one] | Active
CCC(C)c1ccc(-n2c(-c3ccc(N(CC)CC)nc3)nc3ccccc3c2=O)cc1 (centres unmarked) [Example 44, 3-(4-sec-butylphenyl)-2-(6-(diethylamino)pyridin-3-yl)quinazolin-4(3H)-one] | Active
CCC(C)c1ccc(-n2c(-c3cncnc3)nc3ccccc3c2=O)cc1 (centres unmarked) [Example 45, 3-(4-sec-butylphenyl)-2-(pyrimidin-5-yl)quinazolin-4(3H)-one] | Active
CCC(C)c1ccc(-n2c(-c3ccc(C)nc3)nc3ccccc3c2=O)cc1 (centres unmarked) [Example 46, 3-(4-sec-butylphenyl)-2-(6-methylpyridin-3-yl)quinazolin-4(3H)-one] | Active
Cc1ccc(-c2nc3ccccc3c(=O)n2-c2ccc(Cl)cc2)cn1 [Example 47, 3-(4-chlorophenyl)-2-(6-methylpyridin-3-yl)quinazolin-4(3H)-one] | Active
O=c1c2ccccc2nc(-c2ccc(N3CCCCC3)nc2)n1-c1ccc(Cl)cc1 [Example 48, 3-(4-chlorophenyl)-2-(6-(piperidin-1-yl)pyridin-3-yl)quinazolin-4(3H)-one] | Active
CCC(C)c1ccc(-n2c(-c3ccc(N4CCCCC4)nc3)nc3ccccc3c2=O)cc1 (centres unmarked) [Example 49, 3-(4-sec-butylphenyl)-2-(6-(piperidin-1-yl)pyridin-3-yl)quinazolin-4(3H)-one] | Active
O=c1c2ccccc2nc(-c2ccc(Oc3ccccc3)nc2)n1-c1ccc(Cl)cc1 [Example 50, 3-(4-chlorophenyl)-2-(6-phenoxypyridin-3-yl)quinazolin-4(3H)-one] | Active
CCC(C)c1ccc(-n2c(-c3ccc(F)nc3)nc3ccccc3c2=O)cc1 (centres unmarked) [Example 51, 3-(4-sec-butylphenyl)-2-(6-fluoropyridin-3-yl)quinazolin-4(3H)-one] | Active
CCC(C)c1ccc(-n2c(-c3ccc(Oc4ccccc4)nc3)nc3ccccc3c2=O)cc1 (centres unmarked) [Example 52, 3-(4-sec-butylphenyl)-2-(6-phenoxypyridin-3-yl)quinazolin-4(3H)-one] | Active
